# Results published in patent US20230122911A1, “FORMULATIONS OF ENZALUTAMIDE” (Astellas Pharma Inc., priority 2012, published 2023).
# Assays:
# Assay type in all cases: physicochemical
# [1] = Microcentrifuge dissolution test in Model Fasted Duodenal Solution; conditions: for Enzalutamide Concentration / AUC90 (area under the curve at 90 minutes) / Cmax,90 (maximum drug concentration through 90 minutes): MFDS pH 6.5, dose 200 µg/ml; for AUC90 (area under the curve at 90 minutes) / Cmax,90 (maximum drug concentration through 90 minutes): Table 4.2; for Average enzalutamide concentration: Table 9.1
# Excerpt: The in vitro dissolution test to evaluate enhanced drug concentration in aqueous solution can be conducted by (1) adding with agitation a sufficient quantity of control composition, that is, the crystalline enzalutamide alone, to the in vitro test medium, typically MFD or PBS solution, to determine the maximum concentration of the enzalutamide achieved under the conditions of the test: (2) adding with agitation a sufficient quantity of test composition (e.g., the enzalutamide and polymer) in an equivalent test medium, such that if all the enzalutamide dissolved, the theoretical concentration of enzalutamide would exceed the observed maximum concentration of enzalutamide by a factor of about 20; and (3) comparing the measured MDC and/or aqueous concentration versus time AUC90 of the test composition in the test medium with the maximum concentration, and/or the aqueous concentration versus time AUC90 of the control composition. In conducting such a dissolution test, the amount of test composition or control composition used is an amount such that if all of the enzalutamide dissolved, the test enzalutamide concentration would be at least about 20-fold that of the control enzalutamide concentration.
# The concentration of dissolved enzalutamide is typically measured as a function of time by sampling the test medium and plotting enzalutamide concentration in the test medium vs. time so that the MDC can be ascertained. The MDC is taken to be the maximum value of dissolved enzalutamide measured over the duration of the test. The enzalutamide concentration versus time AUC90 is calculated by integrating the concentration versus time curve over any 90-minute time period between the time of introduction of the composition into the aqueous use environment (time equals zero) and 270 minutes following introduction to the use environment (time equals 270 minutes). Typically, when the composition reaches its MDC rapidly, in less than about 30 minutes, the time interval used to calculate AUC90 is from time equals zero to time equals 90 minutes. However, if the AUC90 over any 90-minute time period described above of a composition meets the criteria of compositions described herein, then the composition is included in compositions of this disclosure. The time period 270 min is chosen because of its physiological relevance. Drug absorption in mammals generally occurs in the small intestine, and the small intestinal transit time in humans is approximately 4.5 hr, or 270 min.
# To avoid large enzalutamide particulates which would give an erroneous determination, the test solution is either filtered or centrifuged. “Dissolved enzalutamide” is typically taken as that material that either passes a 0.45 micron syringe filter or, alternatively, the material that remains in the supernatant following centrifugation. Filtration can be conducted using a 13 mm, 0.45 micron polyvinylidine difluoride syringe filter, such as the filter sold by Scientific Resources under the trademark TITAN™. Centrifugation is typically carried out in a polypropylene microcentrifuge tube by centrifuging at 13.000 G for 60 seconds. Other similar filtration or centrifugation methods can be employed and useful results obtained. For example, using other types of microfilters may yield values somewhat higher or lower (+/- 10-40%) than that obtained with the filter specified above but will still allow identification of dispersions. It is recognized that this definition of “dissolved enzalutamide” encompasses not only monomeric solvated enzalutamide molecules but also a wide range of species such as polymer/enzalutamide assemblies that have submicron dimensions such as enzalutamide aggregates, aggregates of mixtures of polymer and enzalutamide, micelles, polymeric micelles, colloidal particles, polymer/enzalutamide complexes, and other such enzalutamide-containing species that are present in the filtrate or supernatant in the specified dissolution test. […]
# [2] = Glass transition temperature (Tg) by modulated DSC
# Protocol: Below Tg, an amorphous material is said to be in a “glassy” state in which molecular mobility is severely restricted. […] Glass transition temperatures Tg were determined for amorphous enzalutamide, and for spray-dried dispersions (SDDs) of enzalutamide with HPMCAS-M or PVP-VA64, at <5% and 75% relative humidity (RH) Tgs were determined by modulated differential scanning calorimetry (mDSC), utilizing the following protocol. Samples (about 5 mg) were equilibrated at the desired RH overnight in an environmental chamber at ambient temperature. The samples were then loaded into pans and sealed inside the environmental chamber. The samples were analyzed on a Q1000 mDSC (TA Instruments, New Castle, Delaware). Samples were typically scanned over the temperature range of -40° C. to 180° C., at a scan rate of 2.5° C./min, and a modulation rate of ±1.5° C./min. […] The Tg was calculated based on half height.
# HME dispersions were produced using dry-powder blends of enzalutamide and HPMCAS-M or PVP VA at three different drug loadings: 25%A, 40%A, and 60%A. Using a volumetric powder feeder, the blends were fed at a controlled rate to a 7.5 \-mm MP&R™ Model ME7.5 Twin-Screw Extruder (MP&R, Hackensack, NJ). […] Table 11.1 presents the extrusion temperature, the crystallinity of the dispersion (amorphous is desired), and the glass transition temperature (Tg) measured by DSC.
# [3] = Crystallinity by PXRD (and DSC); conditions: after spray-drying
# [4] = Microcentrifuge dissolution before and after suspension for 2 hr in aqueous 0.5% methylcellulose
# Protocol: Drugs and drug formulations are sometimes dosed as aqueous suspensions, particularly for pediatric patients. The ability of various enzalutamide SDDs to retain their ability to maintain drug supersaturation in vitro was assessed by using the microcentrifuge dissolution test to measure drug dissolution after suspension in 0.5% methylcellulose in water for 2 hours. Methylcellulose is a standard viscosifying suspending agent which is used to maintain drug particles in suspension in oral suspension dosage forms. The table below presents in vitro dissolution performance before and after suspension in 0.5% methylcellulose.
# [5] = listed as Amorphous (spray-dried) enzalutamide
# [6] = 0 hr, before suspension in 0.5% methylcellulose
# [7] = after suspension for 2 hr in aqueous 0.5% methylcellulose
structure (smiles),measurement,setting,value
"CNC(=O)c1ccc(N2C(=S)N(c3ccc(C#N)c(C(F)(F)F)c3)C(=O)C2(C)C)cc1F [Amorphous enzalutamide, 4-{3-[4-cyano-3-(trifluoromethyl)phenyl]-5,5-dimethyl-4-oxo-2-sulfanylideneimidazolidin-1-yl}-2-fluoro-N-methylbenzamide]",Enzalutamide Concentration,[1]; 0 min,0.0 µg/mL
same,Enzalutamide Concentration,"[1]; 4 min, listed as Amorphous (spray-dried) enzalutamide",61 µg/mL
same,Enzalutamide Concentration,"[1]; 10 min, listed as Amorphous (spray-dried) enzalutamide",100 µg/mL
same,Enzalutamide Concentration,"[1]; 20 min, listed as Amorphous (spray-dried) enzalutamide",100 µg/mL
same,Enzalutamide Concentration,"[1]; 40 min, listed as Amorphous (spray-dried) enzalutamide",110 µg/mL
same,Enzalutamide Concentration,"[1]; 90 min, listed as Amorphous (spray-dried) enzalutamide",120 µg/mL
same,Enzalutamide Concentration,"[1]; 1200 min, listed as Amorphous (spray-dried) enzalutamide",30 µg/mL
same,AUC90 (area under the curve at 90 minutes),[1]; [5],"9,500 min*µg/mL"
same,"Cmax,90 (maximum drug concentration through 90 minutes)",[1]; [5],120 µg/mL
same,Tg,[2]; 75% RH,64.0 °C
same,Tg,[2]; <5% RH,88.5 °C
same,crystallinity by PXRD,[3],completely amorphous
same,AUC90,[4]; [6],"8,900 min·mcg/ml"
same,Cmax 90,[4]; [6],110 µg/mL
same,AUC90,[4]; [7],"8,800 min·mcg/ml"
same,AUC90% of 0 Hr Value,[4]; [7],99%
same,Cmax 90,[4]; [7],100 µg/mL
"CNC(=O)c1ccc(N2C(=S)N(c3ccc(C#N)c(C(F)(F)F)c3)C(=O)C2(C)C)cc1F [Control 1, 4-{3-[4-cyano-3-(trifluoromethyl)phenyl]-5,5-dimethyl-4-oxo-2-sulfanylideneimidazolidin-1-yl}-2-fluoro-N-methylbenzamide]",Enzalutamide Concentration,[1]; 4 min,1 µg/mL
same,Enzalutamide Concentration,[1]; 10 min,3 µg/mL
same,Enzalutamide Concentration,[1]; 20 min,5 µg/mL
same,Enzalutamide Concentration,[1]; 40 min,6 µg/mL
same,Enzalutamide Concentration,[1]; 90 min,7 µg/mL
same,Enzalutamide Concentration,[1]; 1200 min,9 µg/mL
same,AUC90 (area under the curve at 90 minutes),[1],500 µg·min/mL
same,"Cmax,90 (maximum drug concentration through 90 minutes)",[1],7 µg/mL
same,Average enzalutamide concentration,[1]; 0 min,0.32 µg/mL
same,Average enzalutamide concentration,[1]; 4 min,5.23 µg/mL
same,Average enzalutamide concentration,[1]; 10 min,8.04 µg/mL
same,Average enzalutamide concentration,[1]; 20 min,7.69 µg/mL
same,Average enzalutamide concentration,[1]; 40 min,8.65 µg/mL
same,Average enzalutamide concentration,[1]; 90 min,9.14 µg/mL
same,Average enzalutamide concentration,[1]; 1200 min,12.12 µg/mL
same,AUC90 min,[1]; Table 9.2,740 µg·min/mL
same,"Cmax,90 min",[1]; Table 9.2,10 µg/mL
